Patent US20250134861A1, “COMPOSITIONS COMPRISING 5-METHOXY-N,N-DIMETHYLTRYPTAMINE (5-MEO-DMT) FOR USE IN TREATING MENTAL DISORDERS” (GH RESEARCH IRELAND LIMITED, priority 2019, published 2025)

Experiments:
[1] = system: patients with anxiety associated with life-threatening diseases; conditions: 12 patients; two months follow-up; cited from earlier work
[2] = system: patients in a treatment program of alcoholism; conditions: LSD together with psychotherapy vs psychotherapy alone; cited from earlier work
[3] = oral; cited from earlier work
[4] = system: patients suffering from terminal state of cancer; conditions: LSD treatment; cited from earlier work
[5] = system: patients with personality trait disturbance or anxiety; conditions: LSD as an aid to psychotherapy; cited from earlier work
[6] = system: patients with alcohol dependence; conditions: therapy with LSD; cited from earlier work
[7] = Clinical trial of inhaled 5-MeO-DMT in healthy volunteers: 5-MeO-DMT and bufotenine plasma levels; assay type: in vivo, human; conditions: all other samples (1 hour and 3 hours) after inhaled 5-MeO-DMT
Protocol: The trial consisted of two parts: Part A, where single doses of 5-MeO-DMT dosage amounts of 2 mg, 6 mg, 12 mg and 18 mg were administered; and Part B, where an initial 5-MeO-DMT dosage amount of 6 mg was administered, and then, unless the participant had already experienced a peak psychedelic experience based on the PPEQ or the supervising physician had decided that further dose increases were inappropriate based on observed side effects, further subsequent dosage amounts of 12 mg and 18 mg were administered with about 3 hours in between each administration. […] Pharmacokinetic analysis of 5-MeO-DMT and bufotenine plasma levels was performed at 1 hour and 3 hours after drug administration in Part A, and at 3 hours after drug administration in Part B.

5-HT2A receptor = 5-HT2A receptor (Homo sapiens, UniProt P28223); conditions: compared with 5-MeO-DMT; cited from earlier work
[8] = system: patients with treatment-resistant depression; conditions: in vivo; cited from earlier work

Chain of 5-HT2A receptor (P28223 whole entry): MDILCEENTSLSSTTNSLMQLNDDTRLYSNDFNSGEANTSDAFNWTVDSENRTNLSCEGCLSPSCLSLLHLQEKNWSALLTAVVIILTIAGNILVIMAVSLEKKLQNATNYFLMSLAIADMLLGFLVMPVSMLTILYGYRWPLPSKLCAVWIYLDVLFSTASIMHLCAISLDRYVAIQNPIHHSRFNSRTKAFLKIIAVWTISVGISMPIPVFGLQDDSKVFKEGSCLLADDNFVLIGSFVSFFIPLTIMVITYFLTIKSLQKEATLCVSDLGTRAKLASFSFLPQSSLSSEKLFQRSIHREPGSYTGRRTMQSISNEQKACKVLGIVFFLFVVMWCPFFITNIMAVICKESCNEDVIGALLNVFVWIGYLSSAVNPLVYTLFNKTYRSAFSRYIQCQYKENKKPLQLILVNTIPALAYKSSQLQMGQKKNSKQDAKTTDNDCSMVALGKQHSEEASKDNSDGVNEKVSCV

SMILES: CCN(CC)C(=O)[C@@H]1C=C2c3cccc4[nH]cc(c34)C[C@H]2N(C)C1 [LSD, lysergic acid diethylamide]
- Anxiety measures [1]: significant effects
- Rates of abstinence or improvement [2]: higher rates of abstinence or improvement
- Duration of acute psychedelic effects [3]: several hours
- Fraction of patients who improved in varying degrees [4]: about two-thirds
- Patients with outcome of "much improved" or "improved" [5]: over 90%
- Patients changed (stop drinking or are much improved) [6]: 50%

SMILES: CN(C)CCc1c[nH]c2ccc(O)cc12 [bufotenine]
- Bufotenine (5-MeO-DMT metabolite) plasma levels [7]: undetectable
- Affinity for the 5-HT2A receptor (5-HT2A receptor): much higher affinity than 5-MeO-DMT itself

SMILES: CN(C)CCc1c[nH]c2cccc(OP(=O)(O)O)c12 [psilocybin]
- Frequently reported side effects [8]: anxiety, headache and nausea
